Assay results published in ChEMBL document CHEMBL4765358, “Discovery of highly potent and selective antiparasitic new oxadiazole and hydroxy-oxindole small molecule hybrids” (Eur J Med Chem, 2020).

Legend:
[1] = Cytotoxicity against human HepG2 cells assessed as reduction in cell viability incubated for 120 hrs by MTS assay; assay type: cell-based
[2] = Cytotoxicity against human HFF-1 cells assessed as reduction in cell viability incubated for 120 hrs by MTS assay; assay type: cell-based
Trypanosoma cruzi [3] = experiment: Antitrypanosomal activity against Trypanosoma cruzi (MHOM/CH/00/Tulahuen C2, lacZ) amastigotes infected in HFF-1 cells assessed as reduction in parasite growth at 75 uM incubated for 120 hrs by CPRG/Igepal substrate based photometric method relative to control; assay type: functional; conditions: MHOM/CH/00/Tulahuen C2, HFF-1
Trypanosoma cruzi [4] = experiment: Antitrypanosomal activity against Trypanosoma cruzi (MHOM/CH/00/Tulahuen C2, lacZ) amastigotes infected in HFF-1 cells assessed as reduction in parasite growth at 150 uM incubated for 120 hrs by CPRG/Igepal substrate based photometric method relative to control; assay type: functional; conditions: MHOM/CH/00/Tulahuen C2, HFF-1
Trypanosoma cruzi [5] = experiment: Antitrypanosomal activity against Trypanosoma cruzi (MHOM/CH/00/Tulahuen C2, lacZ) amastigotes infected in HFF-1 cells assessed as reduction in parasite growth at 300 uM incubated for 120 hrs by CPRG/Igepal substrate based photometric method relative to control; assay type: functional; conditions: MHOM/CH/00/Tulahuen C2, HFF-1
Leishmania infantum = experiment: Antileishmanial activity against Leishmania infantum MHOM/MA/67/ITMAP-263 infected in THP1 cells assessed as reduction in parasite growth incubated for 120 hrs by Giemsa staining based inverted microscopic analysis; assay type: functional, organism-based; conditions: MHOM/MA/67/ITMAP-263, THP-1, 120 h
Trypanosoma cruzi [6] = experiment: Antitrypanosomal activity against Trypanosoma cruzi (MHOM/CH/00/Tulahuen C2, lacZ) amastigotes infected in HFF-1 cells assessed as reduction in parasite growth incubated for 120 hrs by CPRG/Igepal substrate based photometric method; assay type: functional, organism-based; conditions: MHOM/CH/00/Tulahuen C2, HFF-1, 120 h

Structure (SMILES) | IC50 (Trypanosoma cruzi [6]) [µM] | CC50 at 120 h [1] [µM] | CC50 at 120 h [2] [µM] | inhibition at 75 µM (Trypanosoma cruzi [3]) [%] | inhibition at 150 µM (Trypanosoma cruzi [4]) [%] | inhibition at 300 µM (Trypanosoma cruzi [5]) [%] | IC50 (Leishmania infantum) [µM]
C=C(c1nc(-c2ccccc2)no1)C1(O)C(=O)N(CC)c2ccccc21 (configuration not stated) | 2.3 | 26.8 | > 64 | 100 | 100 | 100 | 7.28
C=C(c1nc(-c2ccccc2)no1)C1(O)C(=O)N(CC)c2ccc([N+](=O)[O-])cc21 (configuration not stated) | > 6.7 | 3.61 | > 64 | 78.9 | 85.4 | 100 | 5.13
C=C(c1nc(-c2ccccc2)no1)C(O)c1cccc(Cl)c1 (configuration not stated) | 6.2 | 20.2 | > 64 | 90.5 | 98.6 | 100 | 7.76
C=CCOC1(C(=C)c2nc(-c3ccccc3)no2)C(=O)N(CC)c2c(Br)cccc21 (configuration not stated) | 6.3 | 60.6 | 20.3 | 93.8 | 100 | 100 | 4.86

Molecules with a lower IC50 (Trypanosoma cruzi [6]), results first:

IC50 (Trypanosoma cruzi [6]) [µM] | Structure (SMILES) | CC50 at 120 h [1] [µM] | CC50 at 120 h [2] [µM] | inhibition at 75 µM (Trypanosoma cruzi [3]) [%] | inhibition at 150 µM (Trypanosoma cruzi [4]) [%] | inhibition at 300 µM (Trypanosoma cruzi [5]) [%] | IC50 (Leishmania infantum) [µM]
2.2 | C=C(c1nc(-c2ccccc2)no1)C(O)c1cccnc1 (configuration not stated) | 19 | > 64 | 89.5 | 99.6 | 100 | 8.51
2.2 | C=C(c1nc(-c2ccccc2)no1)C1(O)C(=O)N(CC)c2ccc(Br)cc21 (configuration not stated) | 11.5 | > 64 | 100 | 100 | 100 | 3.73
